Measured values reported in article PMC4414788 (Chemico-biological interactions, 2015).

Key:
[1] = target: T1, ALDH2 (Homo sapiens, UniProt P05091); experiment: propionaldehyde dehydrogenase assay; assay type: biochemical; details: read-out: ALDH2
T1 sequence (P05091 18-517): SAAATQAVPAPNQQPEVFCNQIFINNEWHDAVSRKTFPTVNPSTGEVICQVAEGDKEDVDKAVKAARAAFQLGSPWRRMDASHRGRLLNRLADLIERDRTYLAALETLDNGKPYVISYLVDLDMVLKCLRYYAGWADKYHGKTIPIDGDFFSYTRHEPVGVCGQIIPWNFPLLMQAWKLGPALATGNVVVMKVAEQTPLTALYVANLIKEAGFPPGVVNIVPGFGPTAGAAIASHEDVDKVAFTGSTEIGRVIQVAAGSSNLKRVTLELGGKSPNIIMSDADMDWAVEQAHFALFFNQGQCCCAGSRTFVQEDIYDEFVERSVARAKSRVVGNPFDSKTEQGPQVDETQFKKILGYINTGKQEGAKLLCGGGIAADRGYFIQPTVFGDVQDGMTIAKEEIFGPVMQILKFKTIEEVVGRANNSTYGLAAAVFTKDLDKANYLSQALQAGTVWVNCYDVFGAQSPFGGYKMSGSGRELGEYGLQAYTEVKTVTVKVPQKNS

[2] = target: T2, ALDH3A1 (Homo sapiens, UniProt P30838); experiment: biochemical; details: read-out: % of control remaining
T2 sequence (P30838 1-453): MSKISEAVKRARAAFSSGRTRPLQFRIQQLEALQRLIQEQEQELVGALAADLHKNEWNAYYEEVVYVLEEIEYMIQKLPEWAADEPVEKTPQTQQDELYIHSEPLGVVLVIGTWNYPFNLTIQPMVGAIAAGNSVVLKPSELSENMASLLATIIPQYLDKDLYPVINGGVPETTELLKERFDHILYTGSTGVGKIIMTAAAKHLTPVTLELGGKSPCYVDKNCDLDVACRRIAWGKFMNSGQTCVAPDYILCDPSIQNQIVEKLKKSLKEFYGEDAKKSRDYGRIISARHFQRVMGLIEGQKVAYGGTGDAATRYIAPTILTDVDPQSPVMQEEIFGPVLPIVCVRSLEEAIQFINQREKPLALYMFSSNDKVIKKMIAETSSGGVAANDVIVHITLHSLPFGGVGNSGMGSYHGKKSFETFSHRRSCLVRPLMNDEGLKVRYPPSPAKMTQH

[3] = target: T3, ALDH1A1 (Homo sapiens, UniProt P00352, N121S); experiment: propionaldehyde dehydrogenase assay; assay type: biochemical; details: read-out: ALDH1A1 ^*
T3 sequence (P00352 2-501 N121S): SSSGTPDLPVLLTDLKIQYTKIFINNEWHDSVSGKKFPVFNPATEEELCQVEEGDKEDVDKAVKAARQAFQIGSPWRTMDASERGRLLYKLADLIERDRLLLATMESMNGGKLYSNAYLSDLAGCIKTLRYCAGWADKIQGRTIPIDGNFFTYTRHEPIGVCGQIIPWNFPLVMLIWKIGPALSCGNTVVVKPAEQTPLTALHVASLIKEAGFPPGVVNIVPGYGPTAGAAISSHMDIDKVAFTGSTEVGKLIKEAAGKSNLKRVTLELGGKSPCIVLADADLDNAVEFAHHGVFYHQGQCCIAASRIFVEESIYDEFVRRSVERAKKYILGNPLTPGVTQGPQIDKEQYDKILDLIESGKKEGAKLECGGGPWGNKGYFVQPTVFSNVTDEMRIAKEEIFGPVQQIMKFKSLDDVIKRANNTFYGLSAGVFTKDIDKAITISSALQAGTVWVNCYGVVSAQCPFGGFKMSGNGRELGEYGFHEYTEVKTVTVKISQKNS

[4] = target: T4, ALDH1A2 (Homo sapiens, UniProt O94788); experiment: propionaldehyde dehydrogenase assay; assay type: biochemical; details: read-out: % inhibition at 10 μM
T4 sequence (O94788 1-518): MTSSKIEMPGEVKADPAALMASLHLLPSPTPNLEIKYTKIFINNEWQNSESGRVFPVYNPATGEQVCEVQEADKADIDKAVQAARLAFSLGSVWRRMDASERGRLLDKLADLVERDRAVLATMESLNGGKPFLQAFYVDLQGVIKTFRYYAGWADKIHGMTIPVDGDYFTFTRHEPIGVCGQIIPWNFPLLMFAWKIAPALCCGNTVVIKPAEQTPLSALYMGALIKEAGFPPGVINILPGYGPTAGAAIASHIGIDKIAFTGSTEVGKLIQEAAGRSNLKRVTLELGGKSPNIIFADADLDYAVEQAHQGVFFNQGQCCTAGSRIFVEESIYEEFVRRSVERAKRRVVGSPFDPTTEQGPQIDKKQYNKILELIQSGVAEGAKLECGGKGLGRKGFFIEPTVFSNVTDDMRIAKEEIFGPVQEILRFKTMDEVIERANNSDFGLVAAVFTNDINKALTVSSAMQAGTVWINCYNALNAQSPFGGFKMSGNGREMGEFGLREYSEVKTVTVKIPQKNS

[5] = target: T5, ALDH1B1 (Homo sapiens, UniProt P30837); experiment: propionaldehyde dehydrogenase assay; assay type: biochemical; details: read-out: % inhibition at 10 μM
T5 sequence (P30837 18-517): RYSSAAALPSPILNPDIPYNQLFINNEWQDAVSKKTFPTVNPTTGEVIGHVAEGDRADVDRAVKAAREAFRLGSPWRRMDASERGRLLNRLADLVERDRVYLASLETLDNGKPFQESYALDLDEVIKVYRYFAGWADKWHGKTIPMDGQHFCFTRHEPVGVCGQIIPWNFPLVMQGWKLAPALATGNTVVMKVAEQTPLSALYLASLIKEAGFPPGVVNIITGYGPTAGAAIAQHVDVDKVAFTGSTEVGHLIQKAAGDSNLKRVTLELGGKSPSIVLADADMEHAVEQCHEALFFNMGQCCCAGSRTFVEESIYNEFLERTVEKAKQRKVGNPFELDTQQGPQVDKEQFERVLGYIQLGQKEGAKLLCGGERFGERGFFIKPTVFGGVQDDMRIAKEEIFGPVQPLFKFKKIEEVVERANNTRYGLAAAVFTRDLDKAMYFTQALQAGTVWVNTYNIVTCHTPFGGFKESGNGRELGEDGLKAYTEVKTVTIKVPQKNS

[6] = target: T6, ALDH1A3 (Homo sapiens, UniProt P47895); experiment: propionaldehyde dehydrogenase assay; assay type: biochemical; details: read-out: % inhibition at 10 μM
T6 sequence (P47895 2-512): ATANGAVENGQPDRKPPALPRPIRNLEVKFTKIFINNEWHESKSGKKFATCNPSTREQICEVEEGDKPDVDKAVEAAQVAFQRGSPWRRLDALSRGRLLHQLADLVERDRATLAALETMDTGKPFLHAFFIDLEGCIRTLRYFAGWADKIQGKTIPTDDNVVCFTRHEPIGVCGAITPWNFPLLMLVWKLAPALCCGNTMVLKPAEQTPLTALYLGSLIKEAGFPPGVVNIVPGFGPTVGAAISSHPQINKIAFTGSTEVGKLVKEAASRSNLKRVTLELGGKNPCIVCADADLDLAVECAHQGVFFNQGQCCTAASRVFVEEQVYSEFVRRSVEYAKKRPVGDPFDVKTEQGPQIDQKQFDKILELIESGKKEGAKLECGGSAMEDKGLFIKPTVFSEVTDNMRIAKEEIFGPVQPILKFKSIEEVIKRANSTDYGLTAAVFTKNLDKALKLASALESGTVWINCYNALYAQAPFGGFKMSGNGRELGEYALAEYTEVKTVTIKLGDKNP

[7] = target: T3, ALDH1A1; experiment: biochemical; details: read-out: % of control remaining

Compound	activity at 10 µM [1] [%]	remaining activity at 10 µM [2] [%]	activity at 10 µM [3] [%]	inhibition at 10 µM [4] [%]	inhibition at 10 µM [5] [%]	inhibition at 10 µM [6] [%]	remaining activity at 10 µM [7] [%]
COC(=O)C(C)Oc1ccc2c(C)cc(=O)oc2c1 (centres unmarked) [2BS4, methyl-2-[(4-methyl-2-oxo-2H-chromen-7-yl)oxy]propanoate]	10.3						
CCCc1c(C)c2cc3c(C)coc3cc2oc1=O [2CB5, 3,5-dimethyl-6-propylfuro[3,2-g]chromen-7-one]	7.6	87.6	58.6				
CCCc1c(C)c2cc3c(C)c(C)oc3cc2oc1=O [2P3, 2,3,5-trimethyl-6-propyl-7H-furo[3,2-g]chromen-7-one]	1.5		40.8	> 60	> 60	> 60	
Cc1oc2cc3oc(=O)c(C)c(C)c3cc2c1C [2P4, 2,3,5,6-tetramethylfuro[3,2-g]chromen-7-one]		87.8					89.3
